Data on three compounds can be found in patent US20030013694A1, “Use and compositions of antiprogestins for treatment of prostate diseases” (priority 2001, published 2003).

SMILES strings stand for the structures.

In test [1] the test system is LNCaP prostate tumor cells. Nature of the test: LNCaP human prostate cancer model in testosterone-supplemented male nude mice. The format is in vivo. As to conditions: compared to control and castration. The method, then: Male nude mice (M&B) were supplemented with testosterone pellets (Innovative Research of America). LNCaP prostate cancer cells (obtainable from ATCC), obtained from cell culture and suspended in matrigel, were implanted s.c. in the inguinal region of the mice. Treatment was started when the tumors were approximately 25 mm^2 in size. Treatment was continued until progression of the tumors, Experimental groups were: 1) control (vehicle), 2) castration, 3) the antiandrogen casodex, 30 mg/kg s.c., 4) the antiprogestin mifepristone (RU-486), 10 mg/kg sec., and 5) 11β-(4-acetylphenyl)-17β-hydroxy-17α-(1,1,2,2,2-pentafluoroethyl)-estra-4,9-dien-3-one (antiprogestin (I)), 10 mg/kg sc., 5 times weekly. The tumor area was determined by caliper measurements. The Kruskal Wallis test was used for statistical analysis of intergroup differences of mean values. The tumor weight was determined at the end of the experiment.

In another test the test system is R3327H. As to conditions: administered alone; R3327H prostate cancer model; cited from earlier work.
Test [2] concerns androgen-independent prostate cancer cells. To be noted: in vitro and in vivo; cited from earlier work.

Take `CC(O)(CS(=O)(=O)c1ccc(F)cc1)C(=O)Nc1ccc(C#N)c(C(F)(F)F)c1` (centres unmarked) [casodex]: the “tumor growth inhibition (tumor area by caliper)” value in test [1] (30 mg/kg s.c.) is on record as “totally ineffective”.
`CC#C[C@]1(O)CC[C@H]2[C@@H]3CCC4=CC(=O)CCC4=C3[C@@H](c3ccc(N(C)C)cc3)C[C@@]21C` [mifepristone]: the “tumor growth inhibition (tumor area by caliper)” value in test [1] (10 mg/kg s.c., 5 times weekly) is given as “totally ineffective”. The “inhibition of tumor growth” value with R3327H is “substantial inhibition of tumor growth”. The effect on apoptosis entry in test [2] was “effective inhibitors of apoptosis”.
Take `CC/C(=C(\c1ccccc1)c1ccc(OCCN(C)C)cc1)c1ccccc1` [tamoxifen]: the effect on apoptosis entry in test [2] is reported as “effective inhibitors of apoptosis”.
